Test results: ChEMBL document CHEMBL5154740, “Novel Aurora A and Protein Kinase C (α, β1, β2, and θ) Multitarget Inhibitors: Impact of Selenium Atoms on the Potency and Selectivity” (J Med Chem, 2022)

What was measured:
[1] = Toxicity in BALB/c mouse implanted with mouse 4T1 cells assessed as loss of body weight at 10 mg/kg, po administered 3 times a week for 30 days; assay type: organism-based; conditions: in vivo, 720 h, time 30 day
[2] = molecular target: Serine/threonine-protein kinase B-raf (Homo sapiens) (UniProt P15056); experiment: Inhibition of BRaf (unknown origin) at 50 nM by Z'LYTE screening method relative to control
Sequence of Serine/threonine-protein kinase B-raf (Homo sapiens) (P15056 whole entry): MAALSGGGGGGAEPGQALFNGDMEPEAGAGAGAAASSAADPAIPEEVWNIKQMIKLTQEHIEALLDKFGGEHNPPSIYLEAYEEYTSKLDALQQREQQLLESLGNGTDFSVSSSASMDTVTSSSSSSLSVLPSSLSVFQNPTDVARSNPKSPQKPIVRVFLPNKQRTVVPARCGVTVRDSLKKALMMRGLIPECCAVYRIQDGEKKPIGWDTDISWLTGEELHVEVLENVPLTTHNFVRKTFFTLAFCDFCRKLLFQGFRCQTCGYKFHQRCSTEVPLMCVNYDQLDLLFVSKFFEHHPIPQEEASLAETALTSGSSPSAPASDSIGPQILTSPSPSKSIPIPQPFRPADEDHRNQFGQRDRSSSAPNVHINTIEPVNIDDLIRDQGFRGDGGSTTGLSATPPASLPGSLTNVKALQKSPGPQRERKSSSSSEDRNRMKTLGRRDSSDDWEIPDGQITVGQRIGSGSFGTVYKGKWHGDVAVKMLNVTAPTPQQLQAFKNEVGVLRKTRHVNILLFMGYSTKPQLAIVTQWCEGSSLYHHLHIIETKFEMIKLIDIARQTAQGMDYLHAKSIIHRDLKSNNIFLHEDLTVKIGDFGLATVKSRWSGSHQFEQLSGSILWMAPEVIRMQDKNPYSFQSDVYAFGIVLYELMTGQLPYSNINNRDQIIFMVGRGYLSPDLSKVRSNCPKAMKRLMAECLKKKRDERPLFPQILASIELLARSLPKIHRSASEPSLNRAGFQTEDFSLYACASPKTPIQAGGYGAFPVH

[3] = molecular target: T1, Inhibitor of nuclear factor kappa-B kinase subunit beta (Homo sapiens) (UniProt O14920); experiment: Inhibition of IKKbeta (unknown origin) at 50 nM by Z'LYTE screening method relative to control
T1 sequence (whole entry): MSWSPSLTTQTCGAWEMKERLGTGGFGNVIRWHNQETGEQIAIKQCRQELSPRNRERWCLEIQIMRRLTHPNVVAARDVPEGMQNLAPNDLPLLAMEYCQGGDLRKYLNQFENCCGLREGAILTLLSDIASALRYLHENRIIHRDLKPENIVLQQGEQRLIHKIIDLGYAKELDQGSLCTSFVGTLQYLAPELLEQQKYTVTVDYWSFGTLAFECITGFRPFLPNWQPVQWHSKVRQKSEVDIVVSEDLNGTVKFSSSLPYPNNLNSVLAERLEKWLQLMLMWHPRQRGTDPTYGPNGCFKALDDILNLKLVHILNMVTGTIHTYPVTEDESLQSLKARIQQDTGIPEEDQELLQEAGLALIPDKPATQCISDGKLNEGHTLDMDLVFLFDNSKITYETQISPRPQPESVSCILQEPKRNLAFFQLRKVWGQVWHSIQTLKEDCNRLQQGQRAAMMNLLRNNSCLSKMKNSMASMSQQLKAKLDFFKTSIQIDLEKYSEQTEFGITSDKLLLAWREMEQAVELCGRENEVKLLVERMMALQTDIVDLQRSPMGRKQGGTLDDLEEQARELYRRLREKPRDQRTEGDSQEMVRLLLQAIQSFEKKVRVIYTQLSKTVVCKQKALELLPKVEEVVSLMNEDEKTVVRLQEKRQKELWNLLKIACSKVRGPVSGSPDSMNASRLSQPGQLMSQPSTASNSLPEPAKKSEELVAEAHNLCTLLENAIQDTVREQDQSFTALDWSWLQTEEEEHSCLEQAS

[4] = molecular target: 3-phosphoinositide-dependent protein kinase 1 (Homo sapiens) (UniProt O15530); experiment: Inhibition of PDK1 (unknown origin) at 50 nM by Z'LYTE screening method relative to control
Sequence of 3-phosphoinositide-dependent protein kinase 1 (Homo sapiens) (O15530 whole entry, looked up): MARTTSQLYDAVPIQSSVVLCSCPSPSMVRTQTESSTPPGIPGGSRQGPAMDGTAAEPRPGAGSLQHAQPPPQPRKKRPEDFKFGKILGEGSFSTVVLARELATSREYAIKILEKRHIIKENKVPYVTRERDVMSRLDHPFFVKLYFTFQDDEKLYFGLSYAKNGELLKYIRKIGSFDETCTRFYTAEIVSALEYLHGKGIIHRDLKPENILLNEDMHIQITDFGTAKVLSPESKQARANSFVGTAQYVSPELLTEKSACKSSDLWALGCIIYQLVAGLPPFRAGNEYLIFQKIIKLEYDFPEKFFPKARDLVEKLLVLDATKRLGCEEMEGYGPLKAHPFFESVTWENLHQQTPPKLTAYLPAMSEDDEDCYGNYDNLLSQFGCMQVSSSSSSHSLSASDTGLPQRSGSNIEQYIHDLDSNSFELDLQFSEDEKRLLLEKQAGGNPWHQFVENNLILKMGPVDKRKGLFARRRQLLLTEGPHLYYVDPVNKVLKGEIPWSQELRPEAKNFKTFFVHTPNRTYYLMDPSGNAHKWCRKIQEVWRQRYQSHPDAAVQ

[5] = molecular target: Glycogen synthase kinase-3 beta (Homo sapiens) (UniProt P49841); experiment: Inhibition of GSK3b (unknown origin) at 50 nM by Z'LYTE screening method relative to control
[6] = molecular target: cAMP-dependent protein kinase (PKA) (Homo sapiens) (UniProt P22694+P17612+P22612); experiment: Inhibition of PKA (unknown origin) at 50 nM by Z'LYTE screening method relative to control; assay type: protein assay
[7] = molecular target: T2, Cyclin-dependent kinase 5/CDK5 activator 1 (Homo sapiens) (UniProt Q00535+Q15078); experiment: Inhibition of CDK5/p35 (unknown origin) at 50 nM by Z'LYTE screening method relative to control; assay type: protein-complex assay
T2 sequence (Q00535 whole entry): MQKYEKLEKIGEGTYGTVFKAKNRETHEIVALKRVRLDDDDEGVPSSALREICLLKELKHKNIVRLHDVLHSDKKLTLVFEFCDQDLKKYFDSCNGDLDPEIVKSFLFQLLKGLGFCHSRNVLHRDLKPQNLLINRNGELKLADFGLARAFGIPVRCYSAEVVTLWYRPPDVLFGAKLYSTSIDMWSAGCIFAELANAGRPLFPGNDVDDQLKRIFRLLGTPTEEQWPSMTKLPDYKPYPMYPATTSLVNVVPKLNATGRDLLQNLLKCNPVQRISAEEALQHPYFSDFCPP
T2 sequence (Q15078 99-307 partner limits assumed): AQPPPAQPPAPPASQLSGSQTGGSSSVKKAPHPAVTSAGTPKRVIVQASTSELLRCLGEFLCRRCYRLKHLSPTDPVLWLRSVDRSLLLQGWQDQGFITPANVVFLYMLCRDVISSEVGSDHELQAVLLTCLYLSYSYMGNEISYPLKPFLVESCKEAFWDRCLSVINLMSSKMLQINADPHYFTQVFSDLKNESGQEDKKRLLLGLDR

[8] = molecular target: Tyrosine-protein kinase Lck (Homo sapiens) (UniProt P06239); experiment: Inhibition of LCK (unknown origin) at 50 nM by Z'LYTE screening method relative to control
Sequence of Tyrosine-protein kinase Lck (Homo sapiens) (P06239 2-509 limits assumed): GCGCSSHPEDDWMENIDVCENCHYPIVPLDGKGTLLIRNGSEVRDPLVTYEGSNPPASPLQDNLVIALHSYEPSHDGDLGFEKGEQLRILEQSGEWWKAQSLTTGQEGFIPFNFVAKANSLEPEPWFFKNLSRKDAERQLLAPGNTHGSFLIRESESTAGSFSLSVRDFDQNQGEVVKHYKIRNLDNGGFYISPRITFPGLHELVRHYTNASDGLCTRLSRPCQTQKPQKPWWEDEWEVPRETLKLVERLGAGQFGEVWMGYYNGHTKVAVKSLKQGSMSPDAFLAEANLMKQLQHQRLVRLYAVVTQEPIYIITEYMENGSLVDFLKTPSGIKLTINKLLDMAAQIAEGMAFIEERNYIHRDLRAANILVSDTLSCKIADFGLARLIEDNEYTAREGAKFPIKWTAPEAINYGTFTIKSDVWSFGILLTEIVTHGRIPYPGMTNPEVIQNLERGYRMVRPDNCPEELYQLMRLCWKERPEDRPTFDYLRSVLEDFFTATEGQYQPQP

[9] = molecular target: Mast/stem cell growth factor receptor Kit (Homo sapiens) (UniProt P10721); experiment: Inhibition of KIT (unknown origin) at 50 nM by Z'LYTE screening method relative to control
Sequence of Mast/stem cell growth factor receptor Kit (Homo sapiens) (P10721 whole entry): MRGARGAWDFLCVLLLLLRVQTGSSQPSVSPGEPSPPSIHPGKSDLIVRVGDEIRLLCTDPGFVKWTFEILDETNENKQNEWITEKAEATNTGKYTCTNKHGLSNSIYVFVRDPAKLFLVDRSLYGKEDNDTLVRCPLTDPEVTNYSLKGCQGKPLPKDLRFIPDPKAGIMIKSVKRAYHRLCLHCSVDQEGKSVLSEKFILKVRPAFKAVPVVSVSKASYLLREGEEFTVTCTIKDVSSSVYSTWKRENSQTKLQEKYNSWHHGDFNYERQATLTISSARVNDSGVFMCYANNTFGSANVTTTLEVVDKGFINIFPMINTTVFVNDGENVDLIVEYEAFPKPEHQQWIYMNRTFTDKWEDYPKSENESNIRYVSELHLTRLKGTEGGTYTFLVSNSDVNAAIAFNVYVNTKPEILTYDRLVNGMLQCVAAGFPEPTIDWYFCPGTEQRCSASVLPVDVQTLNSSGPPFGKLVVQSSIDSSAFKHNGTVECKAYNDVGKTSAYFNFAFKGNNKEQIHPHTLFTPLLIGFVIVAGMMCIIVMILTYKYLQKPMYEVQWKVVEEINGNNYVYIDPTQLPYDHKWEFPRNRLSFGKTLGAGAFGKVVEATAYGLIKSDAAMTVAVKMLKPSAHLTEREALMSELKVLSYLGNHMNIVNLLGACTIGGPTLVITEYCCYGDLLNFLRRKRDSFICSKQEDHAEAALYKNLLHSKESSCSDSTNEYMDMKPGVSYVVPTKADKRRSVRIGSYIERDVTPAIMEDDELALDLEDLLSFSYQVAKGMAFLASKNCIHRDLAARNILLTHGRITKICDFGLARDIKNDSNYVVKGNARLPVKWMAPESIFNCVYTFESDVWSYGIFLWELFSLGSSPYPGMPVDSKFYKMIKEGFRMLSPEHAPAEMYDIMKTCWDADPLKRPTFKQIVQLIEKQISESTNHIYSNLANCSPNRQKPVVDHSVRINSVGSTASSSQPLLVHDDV

[10] = molecular target: Calcium/calmodulin-dependent protein kinase type 1D (Homo sapiens) (UniProt Q8IU85); experiment: Inhibition of CAMK1 delta (unknown origin) at 50 nM by Z'LYTE screening method relative to control
Sequence of Calcium/calmodulin-dependent protein kinase type 1D (Homo sapiens) (Q8IU85 whole entry, looked up): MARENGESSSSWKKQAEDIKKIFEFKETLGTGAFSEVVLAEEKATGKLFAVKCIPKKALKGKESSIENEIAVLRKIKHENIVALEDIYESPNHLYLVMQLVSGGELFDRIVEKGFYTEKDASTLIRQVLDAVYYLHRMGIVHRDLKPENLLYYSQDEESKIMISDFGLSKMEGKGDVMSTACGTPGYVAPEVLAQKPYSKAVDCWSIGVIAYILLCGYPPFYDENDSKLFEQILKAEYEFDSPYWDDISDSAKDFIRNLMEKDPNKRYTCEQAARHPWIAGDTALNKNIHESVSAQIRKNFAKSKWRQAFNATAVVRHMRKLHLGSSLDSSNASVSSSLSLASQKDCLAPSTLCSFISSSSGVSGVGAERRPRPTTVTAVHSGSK

[11] = molecular target: Platelet-derived growth factor receptor alpha (Homo sapiens) (UniProt P16234); experiment: Inhibition of PDGFRalpha (unknown origin) at 50 nM by Z'LYTE screening method relative to control
Sequence of Platelet-derived growth factor receptor alpha (Homo sapiens) (P16234 whole entry): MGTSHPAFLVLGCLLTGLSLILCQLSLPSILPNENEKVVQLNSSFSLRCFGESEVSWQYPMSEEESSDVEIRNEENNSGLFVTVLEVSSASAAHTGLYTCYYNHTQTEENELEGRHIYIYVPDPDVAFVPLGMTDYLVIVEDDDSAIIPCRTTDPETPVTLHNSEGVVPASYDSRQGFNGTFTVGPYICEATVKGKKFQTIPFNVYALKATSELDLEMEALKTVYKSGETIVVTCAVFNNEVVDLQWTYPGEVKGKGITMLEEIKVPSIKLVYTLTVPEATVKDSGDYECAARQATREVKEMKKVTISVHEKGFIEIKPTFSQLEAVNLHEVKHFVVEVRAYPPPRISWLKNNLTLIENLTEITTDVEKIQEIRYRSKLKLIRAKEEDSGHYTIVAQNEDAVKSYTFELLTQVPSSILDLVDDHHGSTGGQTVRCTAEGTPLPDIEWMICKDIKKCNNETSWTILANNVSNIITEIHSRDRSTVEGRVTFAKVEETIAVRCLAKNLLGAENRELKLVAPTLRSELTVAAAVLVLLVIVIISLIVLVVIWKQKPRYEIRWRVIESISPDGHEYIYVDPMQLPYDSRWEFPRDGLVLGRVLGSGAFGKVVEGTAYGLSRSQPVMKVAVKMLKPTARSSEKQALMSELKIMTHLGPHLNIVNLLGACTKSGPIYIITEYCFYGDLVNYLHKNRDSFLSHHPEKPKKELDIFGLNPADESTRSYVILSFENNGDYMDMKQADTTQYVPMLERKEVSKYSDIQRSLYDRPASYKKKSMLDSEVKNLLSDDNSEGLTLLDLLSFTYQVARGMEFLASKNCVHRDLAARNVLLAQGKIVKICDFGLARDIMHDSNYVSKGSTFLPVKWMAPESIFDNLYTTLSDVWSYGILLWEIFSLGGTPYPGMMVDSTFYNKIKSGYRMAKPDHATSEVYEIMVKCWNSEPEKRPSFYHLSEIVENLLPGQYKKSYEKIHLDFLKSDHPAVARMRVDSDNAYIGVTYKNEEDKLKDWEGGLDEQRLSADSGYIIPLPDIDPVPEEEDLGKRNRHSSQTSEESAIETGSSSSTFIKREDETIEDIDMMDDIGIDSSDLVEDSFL

[12] = molecular target: T3, Serine/threonine-protein kinase Chk1 (Homo sapiens) (UniProt O14757); experiment: Inhibition of CHK1 (unknown origin) at 50 nM by Z'LYTE screening method relative to control
T3 sequence (whole entry): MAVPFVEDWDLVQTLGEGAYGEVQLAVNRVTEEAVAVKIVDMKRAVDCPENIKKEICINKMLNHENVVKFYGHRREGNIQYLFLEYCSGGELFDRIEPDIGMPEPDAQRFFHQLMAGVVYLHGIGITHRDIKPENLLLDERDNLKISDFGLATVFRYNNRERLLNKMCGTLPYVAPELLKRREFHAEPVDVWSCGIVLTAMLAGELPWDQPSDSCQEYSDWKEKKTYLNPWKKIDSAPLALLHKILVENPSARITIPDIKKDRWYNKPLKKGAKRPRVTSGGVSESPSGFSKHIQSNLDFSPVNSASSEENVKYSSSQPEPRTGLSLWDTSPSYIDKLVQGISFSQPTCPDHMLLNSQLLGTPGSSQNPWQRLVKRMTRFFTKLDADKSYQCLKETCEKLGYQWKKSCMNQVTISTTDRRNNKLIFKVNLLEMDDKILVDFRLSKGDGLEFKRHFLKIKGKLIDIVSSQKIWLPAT

[13] = molecular target: T4, Serine/threonine-protein kinase TBK1 (Homo sapiens) (UniProt Q9UHD2); experiment: Inhibition of TBK1 (unknown origin) at 50 nM by Z'LYTE screening method relative to control
T4 sequence (whole entry): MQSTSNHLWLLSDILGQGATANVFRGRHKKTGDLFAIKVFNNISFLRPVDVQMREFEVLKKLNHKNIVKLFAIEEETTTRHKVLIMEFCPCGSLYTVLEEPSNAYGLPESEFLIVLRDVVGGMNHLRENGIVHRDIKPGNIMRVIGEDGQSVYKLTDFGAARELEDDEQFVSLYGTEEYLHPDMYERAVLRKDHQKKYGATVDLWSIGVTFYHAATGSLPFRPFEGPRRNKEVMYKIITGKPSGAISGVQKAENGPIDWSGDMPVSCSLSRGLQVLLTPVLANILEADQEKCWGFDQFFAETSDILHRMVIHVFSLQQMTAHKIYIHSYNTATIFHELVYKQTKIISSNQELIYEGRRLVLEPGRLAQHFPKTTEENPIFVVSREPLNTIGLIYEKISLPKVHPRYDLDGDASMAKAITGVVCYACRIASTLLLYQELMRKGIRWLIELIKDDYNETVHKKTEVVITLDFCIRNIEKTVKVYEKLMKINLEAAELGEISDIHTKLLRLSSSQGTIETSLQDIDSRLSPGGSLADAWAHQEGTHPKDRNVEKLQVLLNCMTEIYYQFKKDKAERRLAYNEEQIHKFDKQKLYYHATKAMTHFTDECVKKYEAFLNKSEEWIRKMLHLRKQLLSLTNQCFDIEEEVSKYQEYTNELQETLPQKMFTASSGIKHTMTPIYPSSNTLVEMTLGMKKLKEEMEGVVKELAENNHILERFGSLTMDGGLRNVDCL

[14] = molecular target: T2, Cyclin-dependent kinase 5/CDK5 activator 1 (Homo sapiens); experiment: Inhibition of CDK5/p25 (unknown origin) at 50 nM by Z'LYTE screening method relative to control; assay type: protein-complex assay

| Structure (SMILES) | Activity [1] | inhibition [2] [%] | inhibition [3] [%] | inhibition [4] [%] | inhibition [5] [%] | inhibition [6] [%] | inhibition [7] [%] | inhibition [8] [%] | inhibition [9] [%] | inhibition [10] [%] | inhibition [11] [%] | inhibition [12] [%] | inhibition [13] [%] | inhibition [14] [%] |
| --- | --- | --- | --- | --- | --- | --- | --- | --- | --- | --- | --- | --- | --- | --- |
| O=C1c2ccccc2CN1c1nc(NC2CCCCC2)c2nc[nH]c2n1 | Toxic | 7 | 6 | 0 | 7 | 12 | 2 | 7 | 1 | 0 | 11 | 0 | 0 | 0 |
| O=c1c2ccccc2[se]n1-c1nc(NC2CCCCC2)c2nc[nH]c2n1 | – | 10 | 6 | 0 | 10 | 22 | 2 | 13 | 1 | 1 | 16 | 0 | 0 | 4 |
| O=c1c2ccccc2[se]n1-c1nc(N[C@H]2CC[Se]C2)c2nc[nH]c2n1 | Non-Toxic | 0 | 9 | 0 | 29 | 53 | 1 | 2 | 2 | 5 | 1 | 4 | 0 | 8 |
